{"source": "paper PMC11481179", "about": "“Development and Application of Reversible and Irreversible Covalent Probes for Human and Mouse Cathepsin‐K Activity Detection, Revealing Nuclear Activity” (Advanced Science, 2024)", "key": {"U-2 OS cells": {"system": "U-2 OS cells", "assay": "Cell viability assay (methylene blue)", "type": "cell-based, human", "details": "48 h incubation", "protocol": "(§1) U-2 OS, U-87 MG, and enriched monocyte cells were grown at 370 C with 5% of CO2 in the\n(§2) respective medium as described previously. Cells were seeded (1500 cells/well in 96 wells\n(§3) plate) one day before the incubation with indicated probe or inhibitor at various concentrations.\n(§4) After 48 h cells were fixed, and viability was measured by quantitative colorimetric assay using\n(§5) methylene blue according to the procedure reported by Ben-Bassat et al. The data were\n(§6) expressed as a percentage of control; data represent the mean of 2 experiments with triplicates\n(§7) for each treatment (± standard deviation).\n(§8) Fluorescent imaging of CTSK activity in lung tissue: Freshly resected human lung cancer and\n(§9) normal lung tissues or mouse normal lung and primary lung cancer were embedded in OCT,\n(§10) frozen in liquid nitrogen, and kept at - 80° C. Tissues were sectioned into 10 μm thick slices\n(§11) using a cryostat (Leica). The slides were defrosted and washed with 1X PBS. Then the slides\n(§12) were pretreated with DMSO or GD30 (5 µM) in buffer acetate for 1 h at 37° C. Afterward,\n(§13) GD32 (0.75uM) or DMSO in buffer acetate were applied to the slides for 4 h at 37° C. Three\n(§14) short washes with 1X PBS were done and the slides were left in 1X PBS for overnight\n(§15) incubation at 4° C. The next day, slides were mounted with DAPI-Fluoromount-G® before\n(§16) visualization by confocal microscopy. Olympus FV10i was used for human samples, whereas\n(§17) Zeiss was used for mouse samples.\n(§18) Details of the synthesis of the compounds\n(§19) Synthesis of Compound (2)"}, "U-87 MG cells": {"system": "U-87 MG cells", "assay": "Cell viability assay (methylene blue)", "type": "cell-based, human", "details": "48 h incubation", "protocol": "as §1, §2, §3, §4, §5, §6, §7, §8, §9, §10, §11, §12, §13, §14, §15, §16, §17, §18, §19"}, "CTSK": {"target": "T1, CTSK (Homo sapiens, UniProt P43235)", "T1 sequence (P43235 115-329)": "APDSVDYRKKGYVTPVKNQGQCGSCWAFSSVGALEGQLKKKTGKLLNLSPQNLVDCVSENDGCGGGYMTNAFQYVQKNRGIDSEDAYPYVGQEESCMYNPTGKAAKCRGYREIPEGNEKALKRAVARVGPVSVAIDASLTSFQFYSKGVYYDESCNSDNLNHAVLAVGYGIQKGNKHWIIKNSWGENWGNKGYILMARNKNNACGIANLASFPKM", "assay": "In vitro kinetic evaluation of cathepsin inhibition, fluorescent substrate Z-FR-AMC", "type": "biochemical", "details": "for mode of inhibition: CTSK", "excerpt": "used for TLC. Phosphate Buffer Saline (PBS) was purchased from Biological Industries (pH = […]\n7.4) and was used as a buffer system in all experiments if not indicated otherwise. […]\nRecombinant human CTSB, CTSK, CTSL, and CTSS were supplied by B. Turk (J.\nStefan Institute).[1] […]\nFluorescent gels were scanned by a Typhoon FLA 9500 flatbed laser scanner (GE Healthcare […]\nBio-Sciences AB, Uppsala, Sweden). BioRad ChemiDox XRS+ was used for western blot […]\nanalysis. Olympus FV10i inverted microscope (Tokyo,Japan) with Fluoview software or Zeiss […]\nConfocal LSM 980 with Airyscan (Germany) with Zen software were used for confocal […]\nIn vitro kinetic evaluation of labeling recombinant cathepsins:\nReactions were monitored for 30 min at 37° C in 96-well black flat-bottom microplates […]\n(Greiner, Germany) using Tecan […] M1000 pro plate reader (Tecan, Switzerland), […]\nsubstrates Z-RR-AMC (CTSL) or Z-FR-AMC (CTSS, CTSB and CTSK), and excitation and […]\nemission wavelengths of 370 and 460 nm, respectively. Cathepsin concentrations in the assay were 0.4 nM (CTSK) or 5 nM (CTSS, CTSB, and CTSL). The buffer was 100 mM Na2HPO4/NaH2PO4, 50 mM NaCl, 5 mM DTT, 0,1% Peg-6000, pH 6. For irreversible inhibitors, reaction data were fitted to the one-phase association formula in GraphPad Prism 9 software: Y=Y0 + (Plateau-Y0)*(1-exp(-K*X)) where in this case Y0 and Y represent fluorescence signal at times 0 and t, respectively, K represent the observed reaction rate kobs and X the inhibitor concentration. Inactivation rates at each inhibitor concentration were […]\nmaximal rate of inactivation (kinact) was obtained as the asymptote from equation […]\nfor each X, and Kiapp is the apparent inhibition constant. Ki values were calculated from IC50 or from Kiapp using formulas Ki = Kiapp / (1 + Km/S) and IC50 = E0/2 + Kiapp, where Km stands for Michalis-Menten constant, S for substrate concentration and E0 for cathepsin concentration.\nThe highest inhibitor concentrations in the assay were 50 µM. Measurements were performed in several independent duplicates. Average values are presented with standard deviations. […]"}}, "data": [{"smiles": "C#CCNC(=O)[C@H](CC(C)C)N[C@@H](c1ccc(-c2ccc(S(=O)(=O)CCNC(=O)OC(C)(C)C)cc2)cc1)C(F)(F)F", "note": "[GD30]", "values": [{"measurement": "cytotoxicity", "setting": "U-2 OS cells", "result": "No toxicity"}, {"measurement": "cytotoxicity", "setting": "U-87 MG cells", "result": "No toxicity"}]}, {"smiles": "C#CCNC(=O)[C@H](CC(C)C)N[C@@H](c1ccc(-c2ccc(S(=O)(=O)CCNC(=O)CCCCC[N+]3=C(/C=C/C=C/C=C4/N(C)c5ccc(S(=O)(=O)O)cc5C4(C)C)C(C)(C)c4cc(S(=O)(=O)O)ccc43)cc2)cc1)C(F)(F)F", "note": "[GD32]", "values": [{"measurement": "cytotoxicity", "setting": "U-2 OS cells", "result": "No toxicity"}, {"measurement": "cytotoxicity", "setting": "U-87 MG cells", "result": "No toxicity"}, {"measurement": "mode of inhibition", "setting": "CTSK", "result": "Irreversible"}, {"measurement": "Ki", "setting": "CTSK; CTSK 0.4 nM, pH 6, 37 °C", "result": 3.6, "unit": "nM"}, {"measurement": "kinact", "setting": "CTSK; CTSK 0.4 nM, pH 6, 37 °C", "result": "0.0007 ± 0.0001", "unit": "s⁻¹"}, {"measurement": "kinact/Ki", "setting": "CTSK; CTSK 0.4 nM, pH 6, 37 °C", "result": "26 ± 14 × 10^4 M^−1sec^−1"}]}, {"smiles": "CC(C)C[C@H](N[C@@H](c1ccc(-c2ccc(S(=O)(=O)CCNC(=O)CCCCC[N+]3=C(/C=C/C=C/C=C4/N(C)c5ccc(S(=O)(=O)O)cc5C4(C)C)C(C)(C)c4cc(S(=O)(=O)O)ccc43)cc2)cc1)C(F)(F)F)C(=O)NC1(C#N)CC1", "note": "[GD37]", "values": [{"measurement": "mode of inhibition", "setting": "CTSK", "result": "Reversible [Tight binding]"}, {"measurement": "IC50", "setting": "CTSK; CTSK 0.4 nM, tight binding", "result": 0.4, "unit": "nM"}]}]}
